Results taken from ChEMBL document CHEMBL3886681, “Rotenone derivatives and a use thereof” (2016).

Target: T1, Pancreatic triacylglycerol lipase (Sus scrofa, UniProt P00591)
T1 sequence (P00591 whole entry): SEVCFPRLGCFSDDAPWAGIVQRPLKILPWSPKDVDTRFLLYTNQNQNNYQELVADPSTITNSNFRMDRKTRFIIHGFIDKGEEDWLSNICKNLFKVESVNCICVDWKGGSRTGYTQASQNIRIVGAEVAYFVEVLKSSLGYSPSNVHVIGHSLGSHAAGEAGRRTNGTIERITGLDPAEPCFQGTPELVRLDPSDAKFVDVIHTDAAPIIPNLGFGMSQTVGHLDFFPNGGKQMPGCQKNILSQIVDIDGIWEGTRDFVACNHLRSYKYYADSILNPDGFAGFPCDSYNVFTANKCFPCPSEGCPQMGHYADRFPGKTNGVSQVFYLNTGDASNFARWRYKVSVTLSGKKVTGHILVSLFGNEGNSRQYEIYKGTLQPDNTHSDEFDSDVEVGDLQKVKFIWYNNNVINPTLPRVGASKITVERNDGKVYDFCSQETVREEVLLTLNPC
Test: Inhibition Assay: Particularly, pancreatic lipase inhibiting activity was measured by the conventional method known to those in the art (Kim, J. H.; Kim, H. J.; Park, H. W.; Youn, S. H.; Choi, D. Y.; Shin, C. S. FEMS Microbiol. Lett. 2007, 276, 93.). To prepare the enzyme buffer, 30 mL (10 units) of pig pancreatic lipase solution (Sigma, St. Louis, Mo.) and 1 mM EDTA (pH 6.8) were mixed with 10 mM MOPS (morpholinepropanesulphonic acid), which was added to 850 mL of tris buffer (100 mM Tris-HCl and 5 mM CaCl2, pH 7.0). Then, 100 mL of the rotenoisin A or B of the present invention was mixed with the prepared enzyme buffer at the experimental concentration. […] 20 mL of substrate solution containing 20 mM p-nitrophenylbutyrate dissolved in dimethyl formaide was added to the enzyme buffer, followed by culture for 15 minutes at 37° C. that was the temperature adequate for enzyme reaction.

Compound `C=C(C)[C@H]1Cc2c(ccc3c2OC2COc4cc(OC)c(OC)cc4C2[C@@]32CO2)O1` (stereo partly specified) has an IC50 of 6.3 µM.
